# Measurements published in PMC8976160 (Drug Design, Development and Therapy, 2022).
# Biological target: T1, human Glx-I enzyme (Homo sapiens, UniProt Q04760)
# T1 sequence (Q04760 2-184 limits assumed): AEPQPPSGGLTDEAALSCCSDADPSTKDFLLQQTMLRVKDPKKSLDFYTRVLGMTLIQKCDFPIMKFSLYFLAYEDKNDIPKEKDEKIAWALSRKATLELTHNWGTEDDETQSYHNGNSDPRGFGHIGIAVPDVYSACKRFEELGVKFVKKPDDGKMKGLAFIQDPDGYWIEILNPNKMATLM
# Assay: Glx-I inhibitory activity in vitro
# Type: biochemical
# Conditions: for inhibition at 25 µM: read-out: % Inhibition at 25 μM
SMILES,IC50,inhibition at 25 µM
"Nc1ccc(/N=N/c2ccc(S(N)(=O)=O)cc2)c2cc(O)ccc12 [Compound 13, (E)-4-((4-amino-7-hydroxynaphthalen-1-yl)diazenyl)benzenesulfonamide]",39.1 ± 5.31 µM,46.2%
"NS(=O)(=O)c1ccc(/N=N/c2ccc(O)c(C(=O)O)c2)cc1 [Compound 26, (E)-2-hydroxy-5-((4-sulfamoylphenyl)diazenyl)benzoic acid]",0.39 ± 0.03 µM,97.4%
